Tests used:
[1] = acute toxicity (hazard indices); conditions: in vivo
Description: (§1) Testing the safe method for producing and utilizing the claimed titanium coagulant (absence of mutagenous impact; sensibilizing, allergenic, carcinogenic, gonadotoxic and other action) was carried out on the base of the State organ SRI of human ecology and environmental hygiene named after A.N. Sysin of the Russian Academy of Medical Sciences (RAMS).
(§2) Particularly, derivatives of aluminium oxychloride (AOC) and aluminium sulfate are monitored in accordance with the aluminium content in potable water. While testing the new coagulant, the same principles for evaluating the titanium coagulant safety as the safety evaluation of coagulants based on aluminium were applied. […]

[2] = hygienic hazard indices in water
Description: as §1, §2
One can see from the Table 22 that the method for producing the titanium coagulant and the coagulant generally are safe by the main hygienic indices, and control of the titanium coagulant content in purified water should be performed in accordance with the titanium and aluminium content therein pursuant to the MAC of 0.1 mg/L and 0.2 mg/L, respectively, established for them.

Row | Compound | LD50 [1] [mg/kg] | Min.possi bl [2] [mg/kg] | L.conc. ([2]; retardation) | L.conc. ([2]; taint) | L.conc. ([2]; muddiness) | MAC [2] [mg/L]
1 | Titanium | 150 | 1.0 | 0.1 (retardation) mg/L | 4.5 (taint) mg/L |  | 
2 | [Al] [Aluminium] | 180 to 1360 |  |  |  | 0.2 (muddiness) mg/L | 
3 | aluminium oxychloride [AOC, reference compound] |  | 1.0 | 1.0 (retardation) mg/L |  | 1.45 (muddiness) mg/L | 1.5
